From ChEMBL document CHEMBL1201862, “PubChem BioAssay data set” (2004)
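All cell lines were grown in 96-well plates and treated with compound for 48 hours. GI50: concentration for 50% inhibition of growth.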 Calls of active or inactive are those of the source. No stated cut-off is given here; in the data, active = GI50 up to about 1.1 µM and inactive = higher.

Columns and labels:
Experiment in all cases: NCI tumour cell line growth inhibition, 48 h
OVCAR-5 = tested on: OVCAR-5
LOX IMVI = tested on: LOX IMVI
EKVX = tested on: EKVX
ACHN = tested on: ACHN
NCI-H522 = tested on: NCI-H522
SNB-19 = tested on: SNB-19
786-0 = tested on: 786-0
SW-620 = tested on: SW-620
SN12C = tested on: SN12C
HCT-116 = tested on: HCT-116
MDA-N = tested on: MDA-N
DU-145 = tested on: DU-145
NCI-H226 = tested on: NCI-H226
MOLT-4 = tested on: MOLT-4
SF-539 = tested on: SF-539
A498 = tested on: A498
BT-549 = tested on: BT-549
CAKI-1 = tested on: CAKI-1
UACC-62 = tested on: UACC-62
SR = tested on: SR

| Compound | GI50 (OVCAR-5) | GI50 (LOX IMVI) | GI50 (EKVX) | GI50 (ACHN) | GI50 (NCI-H522) | GI50 (SNB-19) | GI50 (786-0) | GI50 (SW-620) | GI50 (SN12C) | GI50 (HCT-116) | GI50 (MDA-N) | GI50 (DU-145) | GI50 (NCI-H226) | GI50 (MOLT-4) | GI50 (SF-539) | GI50 (A498) | GI50 (BT-549) | GI50 (CAKI-1) | GI50 (UACC-62) | GI50 (SR) |
| --- | --- | --- | --- | --- | --- | --- | --- | --- | --- | --- | --- | --- | --- | --- | --- | --- | --- | --- | --- | --- |
| O=CNc1ccc2c(c1)C(=O)c1ccccc1-2 | > 100 µM (inactive) | 48.8 µM (inactive) | 4.69 µM (inactive) | > 100 µM (inactive) | 60.3 µM (inactive) | > 100 µM (inactive) | 42.9 µM (inactive) | 49.3 µM (inactive) | 30.3 µM (inactive) | 37.8 µM (inactive) | > 100 µM (inactive) | 57.8 µM (inactive) | > 100 µM (inactive) | 44.7 µM (inactive) | 75.5 µM (inactive) | 90.2 µM (inactive) | > 100 µM (inactive) | > 100 µM (inactive) | 49.9 µM (inactive) | 37.2 µM (inactive) |
| COCC(=O)OC1CCn2c1nc1c2C(=O)C(C)=C(NC(C)=O)C1=O (stereo not given) | 8.57 µM (inactive) | 4.34 µM (inactive) | 7.6 µM (inactive) | 8.91 µM (inactive) | 4.57 µM (inactive) | 19.6 µM (inactive) | 6.73 µM (inactive) | 7.4 µM (inactive) | 7.26 µM (inactive) | 3.05 µM (inactive) | 1.85 µM (inactive) | 15.3 µM (inactive) | 11.1 µM (inactive) | 1.14 µM (inactive) | 3.94 µM (inactive) | 27.9 µM (inactive) | 11.7 µM (inactive) | 16.2 µM (inactive) | 3.27 µM (inactive) | 1.94 µM (inactive) |
| Oc1cc(-c2cccc3ccccc23)nc2ncccc12 | 0.0472 µM (active) | 0.033 µM (active) | 0.0948 µM (active) | 0.0325 µM (active) | 0.0201 µM (active) | 0.0274 µM (active) | 0.0321 µM (active) | 0.0344 µM (active) | 0.09 µM (active) | 0.0261 µM (active) | 0.00119 µM (active) | 0.0418 µM (active) | 0.0339 µM (active) | 0.0506 µM (active) | 0.0197 µM (active) | 0.0206 µM (active) | 0.938 µM (active) | 0.0242 µM (active) | 0.0102 µM (active) | 0.00565 µM (active) |
| Nc1onc2c1Cc1c(noc1N)-c1ccccc1-2 | > 100 µM (inactive) | 32.6 µM (inactive) | 16.3 µM (inactive) | 35.4 µM (inactive) | 27.4 µM (inactive) | > 100 µM (inactive) | 79.3 µM (inactive) | 57 µM (inactive) | 85.3 µM (inactive) | 48.9 µM (inactive) | 48.9 µM (inactive) | > 100 µM (inactive) | > 100 µM (inactive) | 74.8 µM (inactive) | 96.8 µM (inactive) | 26.7 µM (inactive) | 17.5 µM (inactive) | 44.4 µM (inactive) | 27.4 µM (inactive) | 35.2 µM (inactive) |
| CCOC(=O)c1c(Br)c(-c2ccc(Br)cc2)c(Br)n1C | 19.4 µM (inactive) | 7.16 µM (inactive) | 8.99 µM (inactive) | 23.4 µM (inactive) | 9.38 µM (inactive) | 28.3 µM (inactive) | 20.5 µM (inactive) | 23.2 µM (inactive) | 25.2 µM (inactive) | 6.32 µM (inactive) | 3.4 µM (inactive) | 31.1 µM (inactive) | 15.5 µM (inactive) | 16.4 µM (inactive) | 21.3 µM (inactive) | 18.2 µM (inactive) | 14.5 µM (inactive) | 17.1 µM (inactive) | 9.27 µM (inactive) | 3.22 µM (inactive) |
| CC(=O)OC1CC(O)CC2=CCC3C4CCC(C(C)(O)C(O)CC5COC(=O)C5C)C4(C)CCC3C21C (stereo not given) | > 25 µM (inactive) | > 25 µM (inactive) | 8.89 µM (inactive) | > 25 µM (inactive) | 12.8 µM (inactive) | > 25 µM (inactive) | > 25 µM (inactive) | > 25 µM (inactive) | > 25 µM (inactive) | 15.2 µM (inactive) | > 25 µM (inactive) | > 25 µM (inactive) | 12.1 µM (inactive) | > 25 µM (inactive) | > 25 µM (inactive) | > 25 µM (inactive) | > 25 µM (inactive) | 8.43 µM (inactive) | 21.4 µM (inactive) | 13.6 µM (inactive) |
| CCOc1ccncc1[N+](=O)[O-] | > 100 µM (inactive) | > 100 µM (inactive) | > 100 µM (inactive) | > 100 µM (inactive) | > 100 µM (inactive) | > 100 µM (inactive) | > 100 µM (inactive) | > 100 µM (inactive) | > 100 µM (inactive) | > 100 µM (inactive) | > 100 µM (inactive) | > 100 µM (inactive) | > 100 µM (inactive) | > 100 µM (inactive) | > 100 µM (inactive) | > 100 µM (inactive) | > 100 µM (inactive) | > 100 µM (inactive) | > 100 µM (inactive) | > 100 µM (inactive) |
| CCc1ccc(Nc2cc(=O)n(C)c(SCc3ccccc3)n2)cc1 | 30.8 µM (inactive) | 33 µM (inactive) | 60.5 µM (inactive) | 75.3 µM (inactive) | 36.1 µM (inactive) | 52.6 µM (inactive) | 17.5 µM (inactive) | 41.6 µM (inactive) | 20 µM (inactive) | 18.2 µM (inactive) | > 100 µM (inactive) | > 100 µM (inactive) | 33.4 µM (inactive) | > 100 µM (inactive) | 30.2 µM (inactive) | 14.5 µM (inactive) | > 100 µM (inactive) | > 100 µM (inactive) | > 100 µM (inactive) | 35.7 µM (inactive) |
| CN(C)/C=C(\C(=O)c1ccccc1)n1nc(-c2ccccc2)cc1-c1ccccc1 | > 10 µM (inactive) | > 10 µM (inactive) | > 10 µM (inactive) | > 10 µM (inactive) | > 10 µM (inactive) | > 10 µM (inactive) | > 10 µM (inactive) | > 10 µM (inactive) | > 10 µM (inactive) | > 10 µM (inactive) | > 10 µM (inactive) | > 10 µM (inactive) | > 10 µM (inactive) | > 10 µM (inactive) | > 10 µM (inactive) | > 10 µM (inactive) | > 10 µM (inactive) | > 10 µM (inactive) | > 10 µM (inactive) | > 10 µM (inactive) |
| CC(C)(C(=O)N(C(=O)N1CCN(c2ccccc2)CC1)S(=O)(=O)c1ccccc1)c1ccc(Cl)cc1 | 42.2 µM (inactive) | 46.8 µM (inactive) | 13.5 µM (inactive) | 19.5 µM (inactive) | 4.32 µM (inactive) | 20.5 µM (inactive) | 55.2 µM (inactive) | 7.03 µM (inactive) | 52.4 µM (inactive) | 17.7 µM (inactive) | 41.5 µM (inactive) | 58.5 µM (inactive) | 52.4 µM (inactive) | 3.33 µM (inactive) | 61.8 µM (inactive) | 18.6 µM (inactive) | 30.7 µM (inactive) | 34.4 µM (inactive) | 40.6 µM (inactive) | 22.8 µM (inactive) |
